“And” between values parts separate entries of the source, which are not always exact repeats. Equal entries are not always repeated. Where two headings read alike, the source gives them in different places.

The results in this text go back to patent US8802675B2, “Neuroprotective multifunctional compounds and pharmaceutical compositions comprising them” (priority 2009, dated 2014).

The target in one assay is T1, rat brain MAO-A (Rattus norvegicus, UniProt P21396).
T1 construct: from tissue; host or cells: rat brain homogenate
T1 sequence (P21396 1-526): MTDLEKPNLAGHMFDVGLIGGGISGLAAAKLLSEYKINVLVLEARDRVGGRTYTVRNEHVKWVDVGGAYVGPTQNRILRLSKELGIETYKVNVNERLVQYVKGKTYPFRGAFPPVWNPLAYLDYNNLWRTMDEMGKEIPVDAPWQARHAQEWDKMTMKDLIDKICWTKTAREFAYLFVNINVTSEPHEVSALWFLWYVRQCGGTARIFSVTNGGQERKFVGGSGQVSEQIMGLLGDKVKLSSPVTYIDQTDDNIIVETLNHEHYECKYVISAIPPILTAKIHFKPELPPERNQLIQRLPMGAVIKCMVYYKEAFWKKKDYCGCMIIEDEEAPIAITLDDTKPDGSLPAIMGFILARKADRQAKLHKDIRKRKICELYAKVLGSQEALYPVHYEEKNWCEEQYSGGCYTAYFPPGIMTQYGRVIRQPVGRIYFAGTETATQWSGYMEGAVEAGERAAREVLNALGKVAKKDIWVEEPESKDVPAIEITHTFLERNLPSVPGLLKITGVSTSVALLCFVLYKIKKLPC
The assay is described as follows: biochemical. Here is the method:
Rats were decapitated and the brains were quickly taken into a pre-weighted ice-cold sucrose buffer (10 mM Tris-HCl buffer, pH 7.4, containing 0.32 M sucrose), and their weights were measured. The brains were homogenized at 0-4° C. in 0.32 M sucrose (one part tissue to 20 parts sucrose) in a Teflon glass homogenizer. The resultant homogenates were used to determine MAO activity. Protein concentration was determined with Bradford reagent at 595 nm, using bovine serum albumin as a standard.
The activity of MAO-A and MAO-B were determined by the adapted method of Tipton & Youdim (Tipton et al. 1983). Briefly, the multifunctional compound tested was added to a suitable dilution of the enzyme preparation (70 μg MAO-B and 150 μg MAO-A) in 0.05 M phosphate buffer (pH 7.4). The mixture was incubated together with 0.05 μM 1-deprenyl, a specific inhibitor of MAO-B (for determination of MAO-A activity in the presence of the test compound) or 0.05 μM clorgyline a specific inhibitor of MAO-A (for determination of MAO-B activity). […] The reaction was stopped with 2M ice-cold citric acid, and the radioactive metabolites (5-hydroxytryptaldehyde and phenylacetaldehyde) were extracted by addition of 2 ml of ethylacetate/toluene (1:1 vol/vol). The radioactivity contained in the organic phase was determined by liquid-scintillation counting in cpm units.
MAO-A and MAO-B activities were determined in rat brain homogenate in vitro following incubation with varying concentrations of the test compounds.
The results are the mean SEM, n=3 in triplicates.

Assay [1] deals with T2, rat brain cholinesterase (total ChE) (Rattus norvegicus, UniProt P37136).
T2 construct: rows headed: Ki (dissociation constant for EI); other: rat brain total ChE; mean of 3-4 experiments; k+2 (carbamylation rate constant); other: from ki; rate of carba
T2 sequence (P37136 32-614): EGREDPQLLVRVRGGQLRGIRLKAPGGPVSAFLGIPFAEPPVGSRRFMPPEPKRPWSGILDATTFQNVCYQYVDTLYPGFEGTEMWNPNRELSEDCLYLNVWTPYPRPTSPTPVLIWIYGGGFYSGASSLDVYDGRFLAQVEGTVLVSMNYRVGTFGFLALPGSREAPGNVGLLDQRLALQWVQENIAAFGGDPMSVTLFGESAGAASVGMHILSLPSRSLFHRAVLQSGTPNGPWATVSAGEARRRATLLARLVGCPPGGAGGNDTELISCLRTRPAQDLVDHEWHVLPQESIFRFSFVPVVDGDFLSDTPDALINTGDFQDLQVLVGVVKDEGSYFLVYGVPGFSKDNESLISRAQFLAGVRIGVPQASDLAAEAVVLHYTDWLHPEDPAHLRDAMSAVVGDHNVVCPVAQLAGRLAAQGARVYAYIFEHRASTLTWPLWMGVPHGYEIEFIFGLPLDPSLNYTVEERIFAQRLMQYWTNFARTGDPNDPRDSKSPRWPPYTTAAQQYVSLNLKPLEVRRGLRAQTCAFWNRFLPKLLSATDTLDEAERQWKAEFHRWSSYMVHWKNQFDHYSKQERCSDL
The assay is described as follows: Kinetics of irreversible cholinesterase inhibition (Kitz-Wilson). In kind it is biochemical. As to conditions: for kinact: pH 7.4, read-out: k+2 (carbamylation rate constant); for kinact/KI: pH 7.4, read-out: ki (second-order rate inhibition constant, approximated by k+2/Ki). The protocol:
To determine kinetic constants of irreversible inhibition, cholinesterase from rat brain homogenates was incubated with the multifunctional compounds of the invention for designed time intervals in phosphate buffer pH 7.4.
The residual cholinesterase activity was immediately measured with the Ellman's colorimetric method after addition of 5,5′-dithiobis(2-nitrobenzoic) acid and 1 mM acetylthiocholine iodide. The inhibition kinetics were assessed according to Kitz-Wilson equation:
[formula] wherein: E represents the enzyme; I represents the intact carbamate (inhibitor); EI is the initial reversible enzyme complex; E* is the carbamylated enzyme; Ki represents the dissociation constant for EI; k+2 is the carbamylation rate constant and k+3 is the decarbamylation rate constant; kapp is the pseudo-first-order inhibition rate constant; ki, the second-order rate inhibition constant, is approximated by k+2/Ki. Under experimental condition [I]>>[E0].
According to equation (2), the logarithm of the ratio of the residual cholinesterase activity (E) and the initial cholinesterase activity (E0) is plotted against the time of incubation. The slopes of the lines representing kapp were determined by linear regression.
The slopes of the lines represent the pseudo-first-order inhibition rate constant (kapp) determined from linear regression analysis. […] The carbamylation rate constant (k+2) was obtained from the y-intercept, and the dissociation constant ([…] was obtained from the slope of the line multiplied by k+2 as described in Materials and Methods.
From these lines, the values of kapp were calculated based on Equation (2) of the Kitz-Wilson equations (see Material and Methods). […] The carbamylation rate constant k+2 is a measure of inactivation of ChE.

[2] abbreviates: IC50 MAO-A, rat brain homogenate in vitro, mean SEM, n=3 in triplicates.

The inhibition is how much of the control response was suppressed. For `C#CCC1CCN(Cc2ccc(OC(=O)N(C)C)c3ncccc23)CC1` [Compound 23, 5-((4-(propargyl)piperidin-1-yl)methyl)quinolin-8-yl dimethylcarbamate], the “inhibitory effect on MAO-A” value against rat brain MAO-A (rat brain homogenate) is “minor to none inhibitory effects”. Also, the inhibition at 10 µM at rat brain MAO-A (read-out: percent inhibition MAO-A) stood at 13%. In assay [1], the kinact is 0.00233 s⁻¹ and the kinact/KI was 242 M⁻¹ s⁻¹.

The term IC50 denotes the concentration needed to halve the response being measured. High values mean weaker potency in that assay, low ones greater potency in that assay. In the case of `C#CCN(C)Cc1ccc(OC(=O)N(C)CC)c2ncccc12` [Compound 3, 5-((methyl(propargyl)amino)methyl)quinolin-8-yl ethyl(methyl)carbamate], at rat brain MAO-A (setting [2]), the 50% inhibitory concentration (IC50) was below 0.1 µM. Moreover, in assay [1], the kinact was 0.0045 s⁻¹ and the kinact/KI was 39 M⁻¹ s⁻¹.

Regarding `C#CCN(C)Cc1ccc(OC(=O)N2CCCC2)c2ncccc12` [Compound 5, 5-((methyl(propargyl)amino)methyl)quinolin-8-yl pyrrolidine-1-carboxylate], the IC50 at rat brain MAO-A (setting [2]) was 0.0047 to 0.02 µM and 0.0049 µM. Besides, the “potency in inhibiting ChE relative to rivastigmine” value in assay [1] (from ki) was “half potent”. Besides, in assay [1], the kinact was 0.00283 s⁻¹ and the kinact/KI was 41 M⁻¹ s⁻¹.

`C#CCN(C)Cc1ccc(O)c2ncccc12` [M30, reference compound] registered a half-inhibitory concentration (IC50) at rat brain MAO-A of 0.037 ± 0.02 µM.

Regarding `C#CCN(C)Cc1ccc(OC(=O)N2CCN(Cc3ccccc3)CC2)c2ncccc12` [Compound 13, 5-((methyl(propargyl)amino)methyl)quinolin-8-yl 4-benzyl piperazine-1-carboxylate], the IC50 against rat brain MAO-A (setting [2]) is 0.0047 to 0.02 µM and 0.02 µM. In assay [1], the kinact was 0.00167 s⁻¹ and the kinact/KI was 168 M⁻¹ s⁻¹.
